One assay has as its target CDK2/CycA2 (Homo sapiens, UniProt P24941). Put plainly: CDK2 mobility shift assay (enzymatic activity of CDK2/CycA2). Type of assay: biochemical. As to conditions: 1.25 nM CDK2/CycA2, 37 μM ATP, FL Peptide 18, 120 min at room temperature; read-out: CDK2 IC50. The essentials: (§1)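 Phosphorylation of 1.5 μM fluorescent peptide was read by microfluidic mobility shift and fitted to IC50 (4-parameter), normalized to no-compound and no-enzyme controls. CDK5/p25 ran at 0.154 nM with […] ATP for 60 min, using peptide 29. CDK2/CycA2 ran at 1.25 nM with 37 μM ATP for 120 min, using peptide 18. Both included a 30-min compound preincubation in pH 7.5 buffer.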

The next assay addresses CDK5/p25 (Homo sapiens, UniProt Q00535). As to the kind of experiment: CDK5 mobility shift assay (enzymatic activity of CDK5/p25). As to conditions: for IC50: 0.154 nM CDK5/p25, FL peptide 29, 60 min at room temperature, read-out: CDK5 IC50; for CDK5/CDK2 specificity: fold more active against CDK5 than CDK2. Type of assay: biochemical. The essentials:
as §1

Data on 12 compounds can be found in patent US20220389009A1, “SUBSTITUTED 1,6-NAPHTHYRIDINE INHIBITORS OF CDK5” (Goldfinch Bio, Inc., priority 2019, published 2022).

Sequence of CDK5/p25 (Q00535 whole entry): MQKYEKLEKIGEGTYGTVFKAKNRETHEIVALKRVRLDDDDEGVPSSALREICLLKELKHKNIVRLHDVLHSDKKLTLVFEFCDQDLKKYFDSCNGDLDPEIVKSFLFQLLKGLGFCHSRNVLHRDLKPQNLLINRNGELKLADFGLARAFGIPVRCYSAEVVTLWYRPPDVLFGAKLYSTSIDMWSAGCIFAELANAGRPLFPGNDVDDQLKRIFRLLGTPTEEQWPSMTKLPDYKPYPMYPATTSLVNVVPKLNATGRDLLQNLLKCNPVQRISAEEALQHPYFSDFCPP
Sequence of CDK5/p25 (Q15078 99-307 partner limits assumed): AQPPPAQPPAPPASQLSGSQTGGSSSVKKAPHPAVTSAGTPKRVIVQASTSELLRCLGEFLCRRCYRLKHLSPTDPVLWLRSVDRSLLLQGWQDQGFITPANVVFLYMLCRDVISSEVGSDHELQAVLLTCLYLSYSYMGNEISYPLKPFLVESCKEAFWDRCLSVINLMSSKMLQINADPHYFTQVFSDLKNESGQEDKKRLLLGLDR

By IC50 is commonly meant the concentration that inhibits the measured activity by half. With `COC(=O)c1cnn(-c2ccc(Nc3cc4nc([C@](C)(O)C5CCN(C)CC5)ccc4cn3)c(F)c2)c1` [Compound 367, methyl 1-[3-fluoro-4-([2-[(1R)-1-hydroxy-1-(1-methylpiperidin-4-yl)ethyl]-1,6-naphthyridin-7-yl]amino)phenyl]pyrazole-4-carboxylate], the IC50 on CDK2/CycA2 fell in the range of 0.01 to 0.1 µM. At CDK5/p25, the IC50 is less than 0.01 µM; the CDK5/CDK2 specificity entry is “++ (greater than 10-fold and less than or equal to 100-fold more active against CDK5 than CDK2)”.

As for `CN1CCC(C(C)(O)c2ccc3cnc(Nc4ccc(-n5ccc(C#N)n5)cc4F)cc3n2)CC1` (stereo not drawn) [Compound 371], the IC50 at CDK2/CycA2 was 0.1 to 1 µM. Further, on CDK5/p25, the IC50 was less than 0.01 µM; the CDK5/CDK2 specificity entry was “++ (greater than 10-fold and less than or equal to 100-fold more active against CDK5 than CDK2)”.

`COc1ccc(-c2ccc(Nc3cc4nc(C(C)C5CCN(C)CC5)ccc4cn3)c(F)c2)cc1` (stereo not drawn) [Compound 310]: the IC50 at CDK2/CycA2 is more than 1 µM. Also, at CDK5/p25, the IC50 is 0.01 to 0.1 µM; the CDK5/CDK2 specificity entry is “++ (greater than 10-fold and less than or equal to 100-fold more active against CDK5 than CDK2)”.

As to `CC(c1ccc2cnc(Nc3ccc(-n4cccn4)cc3F)cc2n1)C1CCN(C)CC1` (stereo not drawn) [Compound 386], the IC50 is 0.1 to 1 µM at CDK2/CycA2 and less than 0.01 µM on CDK5/p25. Further, at CDK5/p25, the CDK5/CDK2 specificity result was “++ (greater than 10-fold and less than or equal to 100-fold more active against CDK5 than CDK2)”.

For the compound `CC(C)(O)c1ccn(-c2ccc(Nc3cc4nc(S(=O)(=O)C5CCN(CC6COC6)CC5)ccc4cn3)c(F)c2)n1` [Compound 340], the IC50 at CDK2/CycA2 is more than 1 µM. Moreover, at CDK5/p25, the IC50 fell in the range of 0.01 to 0.1 µM; the CDK5/CDK2 specificity entry was “++ (greater than 10-fold and less than or equal to 100-fold more active against CDK5 than CDK2)”.

On to `CC(c1ccc2cnc(Nc3ccc(-c4cccnc4)cc3F)cc2n1)C1CCN(C)CC1` (stereo not drawn) [Compound 314], for which the IC50 on CDK2/CycA2 was more than 1 µM. Also, on CDK5/p25, the IC50 lay in the range of 0.01 to 0.1 µM; the CDK5/CDK2 specificity entry was “++ (greater than 10-fold and less than or equal to 100-fold more active against CDK5 than CDK2)”.

In the case of `CN[C@H]1CC[C@@H](N(CC(=O)O)c2ccc3cnc(Nc4ccc(-n5cccn5)cc4F)cc3n2)CC1` [Compound 155, [(7-[[2-fluoro-4-(pyrazol-1-yl)phenyl]amino]-1,6-naphthyridin-2-yl)[(1s,4s)-4-(methylamino)cyclohexyl]amino]acetic acid], the values for the IC50 on CDK2/CycA2 and on CDK5/p25 were more than 1 µM and 0.1 to 1 µM, respectively. The CDK5/CDK2 specificity entry at CDK5/p25 was “++ (greater than 10-fold and less than or equal to 100-fold more active against CDK5 than CDK2)”.

As for `CN1CCC(S(=O)(=O)c2ccc3cnc(Nc4ccc5c(c4)COC5)cc3n2)CC1` [Compound 282], the IC50 on CDK2/CycA2 was 0.01 to 0.1 µM. Besides, on CDK5/p25, the IC50 was less than 0.01 µM; the CDK5/CDK2 specificity result is “++ (greater than 10-fold and less than or equal to 100-fold more active against CDK5 than CDK2)”.

Take `OCCN(c1ccc2cnc(Nc3ccc(-n4ccc(CO)n4)cc3F)cc2n1)C1CCNCC1` [Compound 105, 2-[[7-([2-fluoro-4-[3-(hydroxymethyl)pyrazol-1-yl]phenyl]amino)-1,6-naphthyridin-2-yl](piperidin-4-yl)amino]ethanol]: the IC50 at CDK2/CycA2 fell in the range of 0.1 to 1 µM. Besides, at CDK5/p25, the IC50 lay within 0.01 to 0.1 µM; the CDK5/CDK2 specificity result was “++ (greater than 10-fold and less than or equal to 100-fold more active against CDK5 than CDK2)”.

Take `Nc1cccc(C(=O)Nc2cc3nc(SC4CCNCC4)ccc3cn2)c1` [Compound 136, 3-amino-N-[2-(piperidin-4-ylsulfanyl)-1,6-naphthyridin-7-yl]benzamide]: the IC50 on CDK2/CycA2 was 0.1 to 1 µM. At CDK5/p25, the IC50 lay within 0.1 to 1 µM and the CDK5/CDK2 specificity entry is “+ (10-fold or less more active against CDK5 than CDK2)”.

In the case of `CN1CCC(S(=O)(=O)c2ccc3cnc(Nc4ccc(-n5cncn5)cc4)cc3n2)CC1` [Compound 279], the IC50 on CDK2/CycA2 lay in the range of 0.1 to 1 µM. For the same compound, at CDK5/p25, the IC50 was less than 0.01 µM; the CDK5/CDK2 specificity result is “++ (greater than 10-fold and less than or equal to 100-fold more active against CDK5 than CDK2)”.

For the compound `CN1CCC(C(C)(O)c2ccc3cnc(Nc4ccc(-c5cncnc5)cc4F)cc3n2)CC1` (stereo not drawn) [Compound 342], the IC50 was 0.01 to 0.1 µM on CDK2/CycA2 and less than 0.01 µM at CDK5/p25. In addition, the CDK5/CDK2 specificity result at CDK5/p25 was “++ (greater than 10-fold and less than or equal to 100-fold more active against CDK5 than CDK2)”.
